Source: PMC3917258, “6-Bromoisatin Found in Muricid Mollusc Extracts Inhibits Colon Cancer Cell Proliferation and Induces Apoptosis, Preventing Early Stage Tumor Formation in a Colorectal Cancer Rodent Model” (Marine Drugs, 2013)

How the values were obtained:
[1] = tested on: lymphoma (U937) cell line; design: method as in PMID 17088067; conditions: cited from earlier work
[2] = tested on: human promyelocytic leukemia (HL60) cancer cells; design: method as in PMID 11006132; conditions: 100 µM; cited from earlier work
[3] = tested on: human neuroblastoma SH-SY5Y cells; design: method as in PMID 15876476; conditions: 50 µM; cited from earlier work
ERK-2 = tested on: ERK-2; design: method as in PMID 11006132; conditions: 100 µM, compared to the control; cited from earlier work
[4] = tested on: caspase 3/7 activity in HT29 cells; assay: Caspase-Glo 3/7 assay; format: cell-based, human; conditions: positive control, 5 µM, 12 h
Method: All media and chemicals were purchased from Sigma Aldrich (Castle Hill, NSW, Australia) unless otherwise stated. HT29 human colorectal cancer cell line (passage no. 36-42) were cultured (37 °C and 5% CO2) in Dulbecco’s Modified Eagle’s Medium (DMEM) supplemented with 4500 mg/L L-glutamine, 10% FBS, 100 U/mL Penicillin/Streptomycin and 1% Non-essential Amino Acid (100×), until the cells reached 70% confluence. The cells were harvested from flasks by trypsinization (1× Trypsin-EDTA) and were seeded (20,000 cells/well) into clear 96-well plates (Costar®, Mt Martha, VIC, Australia) for measurement of cell viability and white (opaque) 96-well plates (Interpath, Heidelberg West, VIC, Australia) for determination of apoptosis and necrosis. HT29 cells were incubated for 48 h, then the media was removed and the cells were washed with PBS. To treat the cells, synthetic 6-bromoisatin was dissolved in 100% dimethylsulphoxide (DMSO) then diluted in media and added to the cells at a range of concentrations from 0.1 to 0.01 mg/mL, in triplicate (final DMSO concentration of 1%). 1% DMSO controls were also included on each plate. Staurosporine (5 µM) for apoptosis and lysis solution (5 μL/well, Promega, Alexandria, NSW, Australia) for necrosis were added to the white plates in triplicate, as positive controls. All cells were treated for 12 h. Morphological changes in the cells were observed on an Olympus CK2 inverted optical microscope (×400 magnification) 12 h after treatment. To measure cell viability, the MTT assay was applied, which measures the reduction of MTT tetrazolium salt to formazan, as previously described. To measure necrosis and apoptosis, CytoTox-ONE Homogeneous Membrane Integrity Assay reagent (Promega) and Caspase-Glo 3/7® assay (Promega) were applied respectively, according to our previous study. These assays were all repeated in triplicate on three separate occasions (n = 3).

## O=C1Nc2ccc(Br)cc2C1=O [5-bromo-]
[1]
  activity for killing cancer cells relative to unsubstituted isatin: 5–10 times

## O=C1Nc2ccc(F)cc2C1=O [5-fluoroisatin]
[1]
  activity for killing cancer cells relative to unsubstituted isatin: 5–10 times

## O=C1Nc2ccc(I)cc2C1=O [5-iodo-]
[1]
  activity for killing cancer cells relative to unsubstituted isatin: 5–10 times

## O=C1Nc2ccccc2C1=O [isatin, 1H-indole-2,3-dione]
[2]
  reduction of cell proliferation: 80%
[3]
  apoptosis: apoptosis was observed
ERK-2
  inhibition of phosphorylation of ERK-2: 35%

## CN[C@@H]1C[C@H]2O[C@@](C)([C@@H]1OC)n1c3ccccc3c3c4c(c5c6ccccc6n2c5c31)C(=O)NC4 [staurosporine, reference compound]
[4]
  caspase 3/7 activity: significant increase
